# Source: patent US10980776B2, “Synergistic pharmaceutical combination for the treatment of squamous cell carcinoma of head and neck” (Piramal Enterprises Limited, priority 2011, dated 2021)
# Read-outs that look alike come from different tables or passages of the source.
# Key:
# Detroit-562 cells [1] = assay: Combination studies (single and sequential combination dosing), % cytotoxicity in Detroit-562 cells; conditions: for cytotoxicity at 1 µM / cytotoxicity at 1.8 µM: Homo sapiens, Detroit 562, Detroit-562; for % Cytotoxicity: Detroit-562
# Procedure: (§1) Logarithmically growing cells were plated at a density of 3×10^3 cells/well and allowed to recover overnight. […] After 72 hours, cell toxicity was determined by CCK-8 (Cell Counting Kit-8) reagent (Dojindo Molecular Technologies, Japan); WST-8 (2-(2-methoxy-4-nitrophenyl)-3-(4-nitrophenyl)-5-(2, 4-disulfophenyl)]-2H-tetrazolium, monosodium salt) assay. In accordance with the manufacturer's instructions, 5 μl/well CCK-8 reagent was added and plates were incubated for 2 hours. The toxicity was determined by measuring the absorbance on Tecan Sapphire multi-fluorescence micro-plate reader (Tecan, Germany, GmbH) at a wavelength of 450 nm corrected to 650 nm and normalized to controls.
# (§2) CCK-8 allows convenient assays using Dojindo's tetrazolium salt, WST [8[(2-(2-methoxy-4-nitrophenyl)-3-(4-nitrophenyl)-5-(2,4-disulfophenyl)-2H-tetrazolium, monosodium salt], which produces a water-soluble formazan dye upon bioreduction in the presence of an electron carrier, 1-Methoxy PMS. CCK-8 solution is added directly to the cells; no pre-mixing of components is required. CCK-8 is a sensitive nonradioactive colorimetric assay for determining the number of viable cells in cell proliferation and cytotoxicity assays. WST-8 is bio-reduced by cellular dehydrogenases to an orange formazan product that is soluble in tissue culture medium. The amount of formazan produced is directly proportional to the number of living cells. The detection sensitivity of cell proliferation assays using WST-8 is higher than assays using the other tetrazolium salts such as MIT, XTT, MTS or WST-1. Optical Density was determined at measurement wavelength of 450 nm and reference wave length of 630 nm.
# (§3) Sorafenib in the following dose of final concentration 1.8 μM and compound A in the following doses of final concentration 0.5 μM, 1.3 μM and 12.1 μM were analyzed in single dose and in all possible combinations of the dose range for the two anticancer agents mentioned above. The sequence of treatment is as follows; Detroit-562 cells were treated with sorafenib for 0 to 24 hrs. At the end of 24 hrs the cells were washed two times with plain MEM medium. Fresh MEM with 10% serum (200 μL/well) was added, followed by treatment with compound A from 24 hrs to 96 hrs.
# as §3, with “compound B” for “compound A”, “concentration 2.7” for “concentration 0.5”, “μM, 14.1” for “μM, 1.3”, “and 25.2” for “and 12.1”, “follows; the” for “follows;”
# as §3, with “Lapatinib” for “Sorafenib”, “1” for “1.8”, “follows; the” for “follows;”, “lapatinib” for “sorafenib”
# (§4) Lapatinib in the following dose of final concentration 1.0 μM and compound B in the following doses of final concentration 2.7 μM, 14.1 μM and 25.2 μM were analyzed in single dose and in all possible combinations of the dose range for the two drugs mentioned above. The sequence of treatment is as follows; the Detroit-562 cells were treated with lapatinib for 0 to 24 hrs. At the end of 24 hrs the cells were washed two times with plain MEM medium. Fresh MEM with 10% serum (200 μL/well) was added, followed by treatment with compound A from 24 hrs to 96 hrs.
# Detroit-562 cells [2] = assay: CCK-8 cytotoxicity assay, determination of inhibitory concentrations in Detroit-562 cells; assay type: cell-based; conditions: 72 hr
# Procedure: as §1, §2
# (§5) The cells were seeded at a density of 3000 cells/well, in a 200 μL in tissue culture grade 96 well plate and were allowed to recover for 24 hrs in a humidified 5%±0.2 CO2 incubator at 37° C.±0.5° C. […] The final DMSO concentration was 0.5% in wells. Plates were incubated for 48 hrs in humidified 5%±0.2 CO2 incubator at 37±0.5° C. After 48 hrs the plates were removed from CO2 incubator and 5 μL of Cell counting Kit (CCK-8) per well was added. The same plate was kept at 37° C. for 3 hrs, and allowed to come to room temperature. The absorbance at a wavelength of 450 nm was read on Tecan safire reader. The percent cytotoxicity was calculated using the following formula.
# SCC-25 cells [3] = assay: CCK-8 cytotoxicity assay, determination of inhibitory concentrations in SCC-25 cells; assay type: cell-based; conditions: for IC90 / IC50: Homo sapiens
# Procedure: as §1, §2, §5
# SCC-25 cells [4] = assay: Combination studies (single and sequential combination dosing), % cytotoxicity in SCC-25 cells; conditions: Homo sapiens, SCC-25, SCC-25
# Procedure: as §1, §2
# Sorafenib in the following dose of final concentration 0.18 μM and compound A in the following doses of final concentration 0.1 μM, 0.4 μM and 4.1 μM were analyzed in single dose and in all possible combinations of the dose range for the two anticancer agents mentioned above. The sequence of treatment is as follows; the SCC-25 cells were treated with sorafenib for 0 to 24 hrs. At the end of 24 hrs the cells were washed two times with plain MEM (minimum essential media) medium. Fresh MEM with 10% serum (200 μL/well) was added, followed by treatment with compound A from 24 hrs to 96 hrs.
# Sorafenib in the following dose of final concentration 0.18 μM and compound B in the following doses of final concentration 0.2 μM, 1.1 μM and 4.8 μM were analyzed in single dose and in all possible combinations of the dose range for the two anticancer agents mentioned above. The sequence of treatment is as follows; the SCC-25 cells were treated with sorafenib for 0 to 24 hrs. At the end of 24 hrs the cells were washed two times with plain MEM medium. Fresh MEM with 10% serum (200 μL/well) was added, followed by treatment with compound B from 24 hrs to 96 hrs.
# as §4, with “0.2” for “1.0”, “A” for “B”, “0.2” for “2.7”, “0.5” for “14.1”, “3.3” for “25.2”, “SCC-25” for “Detroit-562”
# as §4, with “0.2” for “1.0”, “0.2” for “2.7”, “1.1” for “14.1”, “4.8” for “25.2”, “SCC-25” for “Detroit-562”
# FADU cells [5] = assay: cells; conditions: Homo sapiens
# FADU cells [6] = assay: CCK-8 cytotoxicity assay, determination of inhibitory concentrations in FADU cells; assay type: cell-based, human; conditions: 72 hr
# Procedure: as §1, §2, §5
# FADU cells [7] = conditions: FADU
# [8] = test system: FaDu (hypopharyngeal squamous cell carcinoma) xenografts; assay: In vivo efficacy in human head and neck cancer FaDu xenografts; conditions: FaDu xenografts in SCID mice; end of treatment, after 18 days; Compound A 35 mpk i.p. once daily 5 days a week; cisplatin 1 mpk i.p. once a week; cetuximab 2.5 mpk twice a week; 3 weeks
# Procedure: In-vivo studies were carried out according to the method described in Clinical cancer search, 2003, 9, 6052-6061; the disclosure of which is incorporated herein by reference for the teaching of the assay.
# The in-vivo studies were carried out using Xenograft models in Severe combined immune deficiency (SCID) mice strain—CbySmn.CB17-Prkdcscid/J, by the method described below. The statistically significant number of mice per group (n=6) was chosen in order to be able to statistically evaluate the study data.
# FaDu cells were grown in MEM (minimum essential media) medium containing non-essential amino acids and 10% fetal calf serum in 5% CO2 incubator at 37° C. Cells were pelleted by centrifugation at 1000 rpm for 10 minutes. Cells were resuspended in pre-chilled mixture of saline to get a count of 6×10^6 cells per mL; 0.2 ml of this cell suspension was kept on ice and injected by subcutaneous (s.c.) route in SCID mice. Mice were observed every alternate day for palpable tumor mass. Once the tumor size reached a size of 3-5 mm in diameter, animals were randomized into respective groups of treatment and untreated controls. The treatment groups comprised of 5 groups viz. […] The control group received no treatment.
# Measurement of tumor was done every 2-3 days apart. Growth inhibition percentage (GI %) was calculated at the end of experiment.
# [9] = single agent at IC10, docetaxel study
# [10] = single agent at IC30, docetaxel study
# [11] = single agent at IC50, cisplatin/5-FU/compound A study
# [12] = single agent at IC70, cisplatin/5-FU/compound A study
Compound,IC30 (Detroit-562 cells [2]) [µM],IC70 (Detroit-562 cells [2]) [µM],IC50 (Detroit-562 cells [2]; Homo sapiens) [µM],IC90 (Detroit-562 cells [2]; Homo sapiens) [µM],"IC90 (SCC-25 cells [3]; SCC-25 cells, 72 hr) [µM]","IC30 (SCC-25 cells [3]; SCC-25 cells, 72 hr) [µM]","IC70 (SCC-25 cells [3]; SCC-25 cells, 72 hr) [µM]",IC30 (FADU cells [6]) [µM],IC70 (FADU cells [6]) [µM],IC50 (FADU cells [6]; Homo sapiens) [µM],IC90 (FADU cells [6]; Homo sapiens) [µM],IC10 (Detroit-562 cells [2]) [µM],IC10 (FADU cells [6]) [µM],also measured
"CS(=O)(=O)CCNCc1ccc(-c2ccc3ncnc(Nc4ccc(OCc5cccc(F)c5)c(Cl)c4)c3c2)o1 [Lapatinib, N-(3-chloro-4-{[(3-fluorophenyl)methyl]oxy}phenyl)-6-[5-({[2-(methylsulfonyl)ethyl]amino}methyl)-2-furanyl]-4-quinazolinaminebis(4-methylbenzenesulfonate)monohydrate]",1.0,7.6,3.9,12.6,9.9,0.2,3.3,0.8,8.7,2.6,14.3,,,"cytotoxicity at 1 µM (Detroit-562 cells [1]; single agent at IC30 (lapatinib 1 μM; compound A 0.5 μM)): 16%; cytotoxicity at 1 µM (Detroit-562 cells [1]; single agent at IC30 (lapatinib 1.0 μM; compound B 2.7 μM)): 16%; IC50 (SCC-25 cells [3]; SCC-25 cells, 72 hr, read-out: IC50): 0.5 µM; cytotoxicity at 0.2 µM (SCC-25 cells [4]; single agent at IC30 (lapatinib 0.2 μM; compound A 0.2 μM)): 17%; cytotoxicity at 0.2 µM (SCC-25 cells [4]; single agent at IC30 (lapatinib 0.2 μM; compound B 0.2 μM)): 17%; cytotoxicity at 0.8 µM (FADU cells [5]; single agent at IC30 (lapatinib 0.8 μM; compound A 0.2 μM)): 19%; cytotoxicity at 0.8 µM (FADU cells [5]; single agent at IC30 (lapatinib 0.8 μM; compound B 2.3 μM)): 19%"
O=c1[nH]cc(F)c(=O)[nH]1 [Compound 5-FU],1.1,17.6,6.3,33.4,,,,2.3,22.4,11.6,38.3,0.31,0.31,"% Cytotoxicity (Detroit-562 cells [1]; [9]): 9.49%; % Cytotoxicity (Detroit-562 cells [1]; [10]): 15.39%; % Cytotoxicity (Detroit-562 cells [1]; [11]): 16.21%; % Cytotoxicity (Detroit-562 cells [1]; [12]): 19.54%; % Cytotoxicity (Detroit-562 cells [1]; single agent at IC90, cisplatin/5-FU/compound A study): 12.59%; % Cytotoxicity (FADU cells [7]; [9]): 6.81%; % Cytotoxicity (FADU cells [7]; single agent at IC30, cisplatin/5-FU/compound A study): 17.81%; % Cytotoxicity (FADU cells [7]; [10]): 19.29%; % Cytotoxicity (FADU cells [7]; [11]): 21.1%; % Cytotoxicity (FADU cells [7]; [12]): 28.6%"
N.N.[Cl][Pt][Cl] [Cisplatin],3,43.2,,,,,,3,30,,,0.3,0.25,IC50 (Detroit-562 cells [2]): 14.6 µM; IC90 (Detroit-562 cells [2]): 74.5 µM; Tumor Growth inhibition (%) [8]: 4%; IC50 (FADU cells [6]): 8.3 µM; IC90 (FADU cells [6]): 74 µM
C#Cc1cccc(Nc2ncnc3cc(OCCOC)c(OCCOC)cc23)c1 [Erlotinib],1.4,6.3,2.3,10.7,,,,0.9,30.7,10.2,63,,,
CC(=O)O[C@@]12CO[C@@H]1C[C@H](O)[C@@]1(C)C(=O)[C@H](O)C3=C(C)[C@@H](OC(=O)[C@H](O)[C@@H](NC(=O)OC(C)(C)C)c4ccccc4)C[C@@](O)([C@@H](OC(=O)c4ccccc4)[C@H]21)C3(C)C [Docetaxel],0.3,8.7,0.85,21.8,,,,0.06,0.71,0.16,35.6,0.009,0.003,
"CNC(=O)c1cc(Oc2ccc(NC(=O)Nc3ccc(Cl)c(C(F)(F)F)c3)cc2)ccn1.Cc1ccc(S(=O)(=O)O)cc1 [Sorafenib, 4-(4-{3-[4-chloro-3-(trifluoromethyl)phenyl]ureido}phenoxy)N^2-methylpyridine-2-carboxamide-4-methylbenzenesulfonate]",1.8,11.2,6.1,15.3,11.7,0.18,6.8,3.9,14.8,8.4,30.6,,,"cytotoxicity at 1.8 µM (Detroit-562 cells [1]; single agent at IC30 (sorafenib 1.8 μM; compound A 0.5 μM)): 14%; cytotoxicity at 1.8 µM (Detroit-562 cells [1]; single agent at IC30 (sorafenib 1.8 μM; compound B 2.7 μM)): 13%; IC50 (SCC-25 cells [3]; SCC-25, 72 h): 2.7 µM; cytotoxicity at 0.18 µM (SCC-25 cells [4]; single agent at IC30 (sorafenib 0.18 μM; compound A 0.1 μM)): 13%; cytotoxicity at 0.18 µM (SCC-25 cells [4]; single agent at IC30 (sorafenib 0.18 μM; compound B 0.2 μM)): 13%; cytotoxicity at 3.9 µM (FADU cells [5]; single agent at IC30 (sorafenib 3.9 μM; compound A 0.2 μM)): 21%; cytotoxicity at 3.9 µM (FADU cells [5]; single agent at IC30 (sorafenib 3.9 μM; compound B 2.3 μM)): 21%"
